Here are results for two compounds from patent publication US11299490B2, “Benzenesulfonamide compounds and their use as therapeutic agents” (Xenon Pharmaceuticals Inc., priority 2016, dated 2022).

A value given as a limit tells only on which side of the number the result lay.

One series addresses NaV1.1 (Homo sapiens (Human), UniProt P35498). Description: Sodium Influx Assay (Flux), NaV1.1. Format: cell-based. The conditions noted are these: Trex HEK293 cells, ANG2 dye; arithmetic mean. From the text:
Sodium Influx Assay (In Vitro Assay)

For series [1], the target named is T1, NaV1.5 (Homo sapiens (Human), UniProt Q14524). Nature of the series: cell-based.
A further series concerns the target NaV1.6 (Homo sapiens (Human), UniProt Q9UQD0). Nature of the series: Sodium Influx Assay (Flux), NaV1.6.
Series [2] concerns the target T1, NaV1.5. Description: Electrophysiological Assay (EP, patch voltage clamp), NaV1.5. The format is cell-based. The conditions noted are these: HEK-293 cells, whole-cell patch clamp, inactivated state; arithmetic mean. Here is the method: Sodium currents were measured using the patch clamp technique in the whole-cell configuration using either a PatchXpress automated voltage clamp or manually using an Axopatch 200B (Axon Instruments) or Model 2400 (A-M systems) amplifier. […] In some studies, the external sodium was reduced by equimolar replacement with choline. […] All recordings were performed at ambient temperature in a bath chamber with a volume of 150 μL. Control sodium currents were measured in 0.5% DMSO. Controls and representative compounds of the invention were applied to the recording chamber through a 4-pinch or 8-pinch valve bath perfusion system manufactured by ALA Scientific Instruments.
Series resistance compensation was applied (60-80%). […] All statistics in this study are given as mean±SD.
The membrane potential was maintained at a voltage where inactivation of the channel is complete. The voltage is then stepped back to a very negative (Vhold=−150 mV) voltage for 20 ms and then a test pulse is applied to quantify the compound block. […] The percent decrease in sodium current following wash-on of compound was taken as the percent block of sodium channels.
A general note: The patch-clamp technique gives a direct electrical read-out from membranes.

T1 sequence (Q14524 other isoform, or with tags, fused parts or gaps): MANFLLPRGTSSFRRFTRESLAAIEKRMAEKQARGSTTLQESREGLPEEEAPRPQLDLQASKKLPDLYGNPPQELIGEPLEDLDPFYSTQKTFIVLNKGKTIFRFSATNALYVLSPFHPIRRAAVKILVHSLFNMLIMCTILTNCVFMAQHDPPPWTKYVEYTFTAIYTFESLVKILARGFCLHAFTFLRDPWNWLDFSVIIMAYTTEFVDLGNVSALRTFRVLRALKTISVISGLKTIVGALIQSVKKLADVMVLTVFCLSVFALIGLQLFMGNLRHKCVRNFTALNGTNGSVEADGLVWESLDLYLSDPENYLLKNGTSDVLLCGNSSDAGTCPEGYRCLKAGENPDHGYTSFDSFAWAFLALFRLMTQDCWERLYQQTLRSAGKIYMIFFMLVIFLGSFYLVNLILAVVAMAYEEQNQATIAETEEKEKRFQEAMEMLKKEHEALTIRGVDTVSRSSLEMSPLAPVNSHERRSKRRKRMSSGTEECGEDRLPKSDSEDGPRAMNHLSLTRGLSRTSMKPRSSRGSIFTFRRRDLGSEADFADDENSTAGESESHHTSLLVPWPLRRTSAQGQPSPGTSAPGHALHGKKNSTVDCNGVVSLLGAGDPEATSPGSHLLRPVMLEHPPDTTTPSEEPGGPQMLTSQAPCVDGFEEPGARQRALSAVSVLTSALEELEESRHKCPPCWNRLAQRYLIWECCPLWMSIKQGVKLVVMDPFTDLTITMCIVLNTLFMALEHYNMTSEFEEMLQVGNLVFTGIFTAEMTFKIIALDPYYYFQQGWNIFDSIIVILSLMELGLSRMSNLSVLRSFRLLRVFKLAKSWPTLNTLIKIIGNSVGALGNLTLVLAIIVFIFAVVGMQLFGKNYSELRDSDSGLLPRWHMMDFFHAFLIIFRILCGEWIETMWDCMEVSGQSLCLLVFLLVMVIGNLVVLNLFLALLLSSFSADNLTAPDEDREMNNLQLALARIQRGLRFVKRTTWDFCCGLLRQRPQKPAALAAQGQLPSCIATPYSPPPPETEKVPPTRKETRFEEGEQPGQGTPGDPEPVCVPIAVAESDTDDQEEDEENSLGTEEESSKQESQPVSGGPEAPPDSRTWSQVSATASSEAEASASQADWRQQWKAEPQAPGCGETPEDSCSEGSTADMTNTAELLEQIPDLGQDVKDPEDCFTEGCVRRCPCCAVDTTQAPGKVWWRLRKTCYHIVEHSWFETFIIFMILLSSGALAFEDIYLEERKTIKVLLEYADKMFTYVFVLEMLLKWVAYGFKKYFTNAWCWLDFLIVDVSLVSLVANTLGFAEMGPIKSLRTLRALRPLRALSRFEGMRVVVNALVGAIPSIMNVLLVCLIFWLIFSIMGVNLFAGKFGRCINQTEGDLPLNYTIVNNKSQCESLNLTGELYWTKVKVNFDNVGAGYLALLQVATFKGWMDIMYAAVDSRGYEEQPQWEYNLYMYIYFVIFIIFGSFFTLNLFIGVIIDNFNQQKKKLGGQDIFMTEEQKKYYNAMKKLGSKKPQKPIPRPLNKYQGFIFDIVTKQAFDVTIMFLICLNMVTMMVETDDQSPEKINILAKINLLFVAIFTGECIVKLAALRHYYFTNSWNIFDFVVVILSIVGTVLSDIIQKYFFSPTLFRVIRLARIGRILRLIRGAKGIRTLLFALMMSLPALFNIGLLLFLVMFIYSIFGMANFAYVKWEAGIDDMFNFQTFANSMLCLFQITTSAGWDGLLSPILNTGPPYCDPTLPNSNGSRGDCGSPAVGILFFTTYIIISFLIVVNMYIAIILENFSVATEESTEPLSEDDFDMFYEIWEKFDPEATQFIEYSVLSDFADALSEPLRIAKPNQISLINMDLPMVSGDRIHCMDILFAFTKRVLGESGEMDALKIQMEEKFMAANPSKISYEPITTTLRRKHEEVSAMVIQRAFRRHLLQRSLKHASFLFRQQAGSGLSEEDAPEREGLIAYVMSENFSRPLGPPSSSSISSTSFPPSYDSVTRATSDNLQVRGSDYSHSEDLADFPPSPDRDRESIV

For orientation: IC50 means the concentration needed to halve the response being measured. For `C[C@@H]1[C@H](N(C)c2cc(F)c(S(=O)(=O)Nc3cscn3)cc2Cl)CCN1Cc1ccccc1` (racemic) [Example 309, rac-4-(((2R,3R)-1-benzyl-2-methylpyrrolidin-3-yl)(methyl)amino)-5-chloro-2-fluoro-N-(thiazol-4-yl)benzenesulfonamide], the IC50 against NaV1.1 worked out at 8.44 µM; against NaV1.5 [1], 7.35 µM; against NaV1.6 it was 6.86 µM.
The compound `Cc1c(N(C)[C@H]2CCN(Cc3ccccc3)C2)cc(F)c(S(=O)(=O)Nc2cscn2)c1F` [Example 103, (S)-4-((1-benzylpyrrolidin-3-yl)(methyl)amino)-2,6-difluoro-3-methyl-N-(thiazol-4-yl)benzenesulfonamide 2,2,2-trifluoroacetate] displayed an IC50 against NaV1.5 [2] above 30 µM.
